This note sets out measurements from US9822078B2, “Quinoline compounds” (Oxford University Innovation Limited, priority 2014, dated 2017).

The target of assay [1] is T1, Islet amyloid precursor polypeptide, IAPP (Homo sapiens, UniProt P10997).
T1 construct: Purified synthetic peptides corresponding to IAPP (Bachem, Weil am Rhein, Germany); purchased Bachem, Weil am Rhein, Germany; host or cells: synthetic peptide
T1 sequence (P10997 34-70 limits assumed): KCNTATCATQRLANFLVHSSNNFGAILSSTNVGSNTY
Briefly: In vitro assembly assay (thioflavin T fluorescence, with or without air-water interface), IAPP. The class given is biochemical. The settings on record: ratio of IC50 with air-water interface (+AWI) to IC50 without (−AWI), IAPP at 4 μM; for Ratio IAPP IC50 (μm) +AWI/−AWI elongation: elongation rate. The protocol: (§1) The assay is based upon the altered fluorescent properties of the dye thioflavin T when it is intercalated into stacked beta-strand structures, which includes amyloid fibrils. The assay is carried out in multi-well plates in which the air-water interface (AWI) can be independently occluded at any time in the assay by the insertion in any well of a hydrophilic poly-methyl-methacrylate cylinder (Perspex). The cylinder consists of a rod of 6.6 mm in diameter and 6 mm in height with a hemispherical tip. This provides a close fit for the circular cross-section of the well, minimising residual air-water interface, and the hemispherical contour on the inserted end serves to ensure that no air bubbles are trapped on insertion.
(§2) The assay has a final volume of 100 μl and contains a buffered isotonic solution (Phosphate Buffered Saline pH 7.4), 32 μM Thioflavin T (ThT), an amyloidogenic precursor peptide (Islet amyloid precursor polypeptide, IAPP at 4 μM, or Abeta1-40 at 12 μM, final concentration) and added compounds at indicated concentrations (dissolved in dimethyl sulphoxide, DMSO) or DMSO alone. Purified synthetic peptides corresponding to IAPP (Bachem, Weil am Rhein, Germany) and Aβ1-40 (EZBiolab, Carmel, Ind., USA) were dissolved in DMSO, sonicated, and centrifuged for 1 hour at 15,000 g and 4° C. before use (to remove any pre-aggregated species).
(§3) The ThT fluorescence signal was measured at 1 minute intervals (excitation 450 nm, emission 480 nm) in a 96-well plate (black wall, clear bottom; Greiner Bio-One, Stonehouse, Gloucestershire, UK) without shaking at 37° C. on a Polarstar plate reader (BMG Labtech, Aylesbury, Buckinghamshire, UK).
(§4) Any compound or physical device (e.g., Perspex cylinder) used was introduced at the same time in test (containing IAPP) and control wells (buffer and ThT without IAPP). Control values (with or without compounds or physical device) were subtracted from test values. At least 3 independent assays, with every assay done in duplicate wells, were performed and analyzed with the 2-sample t test.
(§5) A more detailed description of the IAPP and Aβ thioflavin/cylinder assay is given in Jean et al (2012) Biophysical Journal 102 1154-11.
(§6) The kinetics parameters were calculated from the ThT data as follows; the elongation rate was calculated from the slope at the inflection point of the sigmoidal curve; the plateau height was calculated by averaging the highest curve values (minimum of five values) attained at the end of the experiment; and the lag phase was calculated from the intercept on the time axis of the line formed tangent to the inflection point. At least three independent assays were performed, with every assay performed in duplicate wells. Statistical analysis was performed with the two-sample t-test. Details of the method of calculation of lag phase, elongation rate and plateau height are described in Trigg et al (2013) Biochemical Journal 456 67-80.

For assay [2], the target named is T2, Abeta1-40 (Homo sapiens, UniProt P05067).
T2 construct: Abeta1-40 at 12 μM, final concentration; purchased EZBiolab, Carmel, Ind., USA; host or cells: synthetic peptide
T2 sequence (P05067 672-711 limits assumed): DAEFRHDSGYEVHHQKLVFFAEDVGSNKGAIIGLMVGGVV
Briefly: In vitro assembly assay (thioflavin T fluorescence), screen against Amyloid-beta (Aβ) peptides. The class given is biochemical. The settings on record: Abeta1-40 at 12 μM. The protocol:
as §1, §2, §3, §4, §5, §6

Assay [3] has as its system C. elegans. Briefly: in vivo C. elegans model.

On to `Cc1cc(C)c2ccc(/C=C/c3ccccc3N)nc2c1O` [Compound 131], for which, in assay [1], the “Ratio IAPP IC50 (μm) +AWI/−AWI elongation” value stood at 4 and the “Ratio IAPP IC50 (μm) +AWI/−AWI Lag phase” value is given as 8.
For `Cc1cc(C)c2ccc(/C=C/c3ccccc3O)nc2c1O` [Compound 214], in assay [1], the “Ratio IAPP IC50 (μm) +AWI/−AWI elongation” value is reported as 3 and the “Ratio IAPP IC50 (μm) +AWI/−AWI Lag phase” value was found to be 32. The “Active against Aβ” value in assay [2] was “✓ (rate)”. Further, the “activity in an in vivo C. elegans model” value in assay [3] is reported as “showed activity”.
On to `Cc1cc(C)c2ccc(/C=C/c3ccc(O)c(O)c3)nc2c1O` [Compound 221], for which, in assay [1], the “Ratio IAPP IC50 (μm) +AWI/−AWI elongation” value was determined as 16 and the “Ratio IAPP IC50 (μm) +AWI/−AWI Lag phase” value is on record as 32.
On the same counts, the results for `Cc1cc(C)c2ccc(/C=C/c3ccccc3[N+](=O)[O-])nc2c1O` [Compound 222] are 3 and 11.
Take `Cc1cc(C)c2ccc(/C=C/c3ccccc3)nc2c1O` [Compound 225]: in assay [1], the “Ratio IAPP IC50 (μm) +AWI/−AWI elongation” value is given as 4 and the “Ratio IAPP IC50 (μm) +AWI/−AWI Lag phase” value amounted to 3.
On the same counts, the results for `Cc1cc(C)c2ccc(/C=C/c3ccc(Br)o3)nc2c1O` [Compound 226] are 3 and 1.
On to `Cc1cc(C)c2ccc(/C=C/c3cccc(O)c3)nc2c1O` [Compound 227], for which, in assay [1], the “Ratio IAPP IC50 (μm) +AWI/−AWI elongation” value came out at 31 and the “Ratio IAPP IC50 (μm) +AWI/−AWI Lag phase” value was determined as 32. In addition, in assay [2], the “Active against Aβ” value is listed as “✓ (rate)”.
The like results for `Cc1cc(C)c2ccc(/C=C/c3ccccc3C#N)nc2c1O` [Compound 229] were, in that order, 32, 32 and “✓ (rate)”.
In the case of `Cc1cc(C)c2ccc(/C=C/c3cccc([N+](=O)[O-])c3)nc2c1O` [Compound 234], in assay [1], the “Ratio IAPP IC50 (μm) +AWI/−AWI elongation” value is reported as 21 and the “Ratio IAPP IC50 (μm) +AWI/−AWI Lag phase” value came to 21.
`Cc1cc(C)c2ccc(/C=C/c3cc(C(=O)O)ccc3O)nc2c1O` [Compound 236]: in assay [1], the “Ratio IAPP IC50 (μm) +AWI/−AWI elongation” value amounted to 11 and the “Ratio IAPP IC50 (μm) +AWI/−AWI Lag phase” value is given as 8. In addition, in assay [2], the “Active against Aβ” value is given as “✓”. Besides, the “activity in an in vivo C. elegans model” value in assay [3] was “showed activity”.
Turning to `COc1cc(/C=C/c2ccc3c(C)cc(C)c(O)c3n2)ccc1O` [Compound 238], in assay [1], the “Ratio IAPP IC50 (μm) +AWI/−AWI elongation” value is recorded as 4 and the “Ratio IAPP IC50 (μm) +AWI/−AWI Lag phase” value was 32.
On the same counts, the results for `Cc1cc(C)c2ccc(/C=C/c3ccc(OC(F)(F)F)cc3)nc2c1O` [Compound 239] are 32 and 11.
In the case of `Cc1cc(C)c2ccc(/C=C/c3ccc4c(c3)OCO4)nc2c1O` [Compound 241], in assay [1], the “Ratio IAPP IC50 (μm) +AWI/−AWI elongation” value came out at 11 and the “Ratio IAPP IC50 (μm) +AWI/−AWI Lag phase” value came to 3. Also, in assay [2], the “Active against Aβ” value was “No”. Moreover, the “activity in an in vivo C. elegans model” value in assay [3] is on record as “showed activity”.
Take `Cc1cc(C)c2ccc(/C=C/C3CCCCC3)nc2c1O` [Compound 245]: in assay [1], the “Ratio IAPP IC50 (μm) +AWI/−AWI elongation” value came to 32 and the “Ratio IAPP IC50 (μm) +AWI/−AWI Lag phase” value amounted to 32. The “Active against Aβ” value in assay [2] is reported as “✓”.
As for `Cc1cc(C)c2ccc(/C=C/c3cccnc3)nc2c1O` [Compound 249], in assay [1], the “Ratio IAPP IC50 (μm) +AWI/−AWI elongation” value came to 12 and the “Ratio IAPP IC50 (μm) +AWI/−AWI Lag phase” value is reported as 32. Besides, in assay [2], the “Active against Aβ” value is “✓”. For the same molecule, the “activity in an in vivo C. elegans model” value in assay [3] was “showed activity”.
Regarding `Cc1cc(C)c2ccc(/C=C/c3cccc(C#N)c3)nc2c1O` [Compound 251], in assay [1], the “Ratio IAPP IC50 (μm) +AWI/−AWI elongation” value is given as 21 and the “Ratio IAPP IC50 (μm) +AWI/−AWI Lag phase” value is given as 21. Moreover, the “Active against Aβ” value in assay [2] is on record as “✓”. Moreover, in assay [3], the “activity in an in vivo C. elegans model” value was “showed activity”.
With `Cc1cc(C)c2ccc(/C=C/c3ccc(Br)cc3)nc2c1O` [Compound 252], in assay [1], the “Ratio IAPP IC50 (μm) +AWI/−AWI elongation” value amounted to 3 and the “Ratio IAPP IC50 (μm) +AWI/−AWI Lag phase” value is 1.
The like results for `Cc1cc(C)c2ccc(/C=C/c3cccnc3Cl)nc2c1O` [Compound 311] were, in that order, 1 and 4.
As for `COc1ccc(/C=C/c2ccc3c(C)cc(C)c(O)c3n2)cn1` [Compound 312], in assay [1], the “Ratio IAPP IC50 (μm) +AWI/−AWI elongation” value was 1 and the “Ratio IAPP IC50 (μm) +AWI/−AWI Lag phase” value amounted to 2.
On the same counts, the results for `Cc1cc(C)c2ccc(/C=C/c3cccnc3N)nc2c1O` [Compound 321] are over 1 and 3.
The like results for `Cc1ccc(/C=C/c2ccc3c(C)cc(C)c(O)c3n2)cn1` [Compound 322] were, in that order, 1 and 4.
The like results for `Cc1cc(C)c2ccc(/C=C/c3ccc(N4CCOCC4)nc3)nc2c1O` [Compound 323] were, in that order, 2.5 and 11.
Consider `Cc1cc(C)c2ccc(/C=C/c3ccc(N4CCNCC4)nc3)nc2c1O` [Compound 324], for which, in assay [1], the “Ratio IAPP IC50 (μm) +AWI/−AWI elongation” value was 4 and the “Ratio IAPP IC50 (μm) +AWI/−AWI Lag phase” value came to 21.
In the case of `Cc1cc(C)c2ccc(/C=C/c3cccnc3N3CCNCC3)nc2c1O` [Compound 325], in assay [1], the “Ratio IAPP IC50 (μm) +AWI/−AWI elongation” value was found to be 5 and the “Ratio IAPP IC50 (μm) +AWI/−AWI Lag phase” value came out at 1.
On the same counts, the results for `Cc1cc(C)c2ccc(/C=C/c3cccnc3C)nc2c1O` [Compound 326] are 1 and 1.
